Test results from the supplement of paper PMC11061612.

What was measured:
Carboplatin = compound: C1CC(C1)(C(=O)[O-])C(=O)[O-].N.N.[Pt+2] [Carboplatin]; conditions: max 10 µM
Outline: (§1)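 Cancer cell lines were seeded in 1536-well plates in 7.5 μl DMEM/F12 or RPMI with 10% FBS, held 24 hours at 37°C and 5% CO2, then dosed for 72 hours (final DMSO typically 0.2%). Viability was read by CellTiter-Glo 2.0 luminescence and scaled between blank-well and DMSO-well means. The single-agent IC50 comes from dose responses fitted to a two-parameter logistic curve with a non-linear mixed effects model.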

AZD5363 = compound: C1CN(CCC1(C(=O)N[C@@H](CCO)C2=CC=C(C=C2)Cl)N)C3=NC=NC4=C3C=CN4 [AZD5363]; conditions: max 10 µM
Outline: as §1

AZD1775 = compound: C=CCn1c(=O)c2cnc(Nc3ccc(N4CCN(C)CC4)cc3)nc2n1-c1cccc(C(C)(C)O)n1 [AZD1775]; conditions: max 3 µM
Outline: as §1

Trametinib = compound: CC(=O)Nc1cccc(-n2c(=O)n(C3CC3)c(=O)c3c(Nc4ccc(I)cc4F)n(C)c(=O)c(C)c32)c1 [Trametinib]; conditions: max 1 µM
Outline: as §1

Paclitaxel = compound: CC(=O)O[C@H]1C(=O)[C@@]2(C)[C@H]([C@H](OC(=O)c3ccccc3)[C@]3(O)C[C@H](OC(=O)[C@H](O)[C@@H](NC(=O)c4ccccc4)c4ccccc4)C(C)=C1C3(C)C)[C@]1(OC(C)=O)CO[C@@H]1C[C@@H]2O [Paclitaxel]; conditions: max 3 µM
Outline: as §1

Palbociclib = compound: CC(=O)c1c(C)c2cnc(Nc3ccc(N4CCNCC4)cn3)nc2n(C2CCCC2)c1=O [Palbociclib]; conditions: max 10 µM
Outline: as §1

AZD1390 = compound: CC(C)n1c(=O)n(C)c2cnc3cc(F)c(-c4ccc(OCCCN5CCCCC5)nc4)cc3c21 [AZD1390]; conditions: max 0.3 µM
Outline: as §1

Venetoclax = compound: CC1(C)CCC(CN2CCN(c3ccc(C(=O)NS(=O)(=O)c4ccc(NCC5CCOCC5)c([N+](=O)[O-])c4)c(Oc4cnc5[nH]ccc5c4)c3)CC2)=C(c2ccc(Cl)cc2)C1 [Venetoclax]; conditions: max 1 µM
Outline: as §1

Dasatinib = compound: CC1=C(C(=CC=C1)Cl)NC(=O)C2=CN=C(S2)NC3=CC(=NC(=N3)C)N4CCN(CC4)CCO [Dasatinib]; conditions: max 2 µM
Outline: as §1

SG3199 = compound: CC1=CN2[C@@H](C1)C=NC3=CC(=C(C=C3C2=O)OC)OCCCCCOC4=C(C=C5C(=C4)N=C[C@@H]6CC(=CN6C5=O)C)OC [SG3199]; conditions: max 0.001 µM
Outline: as §1

AZD2811 = compound: CCN(CCO)CCCOc1ccc2c(Nc3cc(CC(=O)Nc4cccc(F)c4)[nH]n3)ncnc2c1 [AZD2811]; conditions: max 1 µM
Outline: as §1

SN-38 = compound: CCc1c2c(nc3ccc(O)cc13)-c1cc3c(c(=O)n1C2)COC(=O)[C@]3(O)CC [SN-38]; conditions: max 0.3 µM
Outline: as §1

AZD0156 = compound: CN(C)CCCOc1ccc(-c2ccc3ncc4c(c3c2)n(C2CCOCC2)c(=O)n4C)cn1 [AZD0156]; conditions: max 3 µM
Outline: as §1

AZD4320 = compound: CN(CC[C@H](CSC1=CC=CC=C1)NC2=C(C=C(C=C2)S(=O)(=O)NC(=O)C3=CC=C(C=C3)N4CCC(CC4)[C@H](C5=CC=CC=C5C6=CC=C(C=C6)Cl)O)S(=O)(=O)C(F)(F)F)CCO [AZD4320]; conditions: max 1 µM
Outline: as §1

Alisertib = compound: COc1cc(Nc2ncc3c(n2)-c2ccc(Cl)cc2C(c2c(F)cccc2OC)=NC3)ccc1C(=O)O [Alisertib]; conditions: max 10 µM
Outline: as §1

Etoposide = compound: COc1cc([C@@H]2c3cc4c(cc3[C@@H](O[C@@H]3O[C@@H]5CO[C@@H](C)O[C@H]5[C@H](O)[C@H]3O)[C@H]3COC(=O)[C@H]23)OCO4)cc(OC)c1O [Etoposide]; conditions: max 10 µM
Outline: as §1

Gefitinib = compound: COc1cc2ncnc(Nc3ccc(F)c(Cl)c3)c2cc1OCCCN1CCOCC1 [Gefitinib]; conditions: max 10 µM
Outline: as §1

Prexasertib = compound: COc1cccc(OCCCN)c1-c1cc(Nc2cnc(C#N)cn2)n[nH]1 [Prexasertib]; conditions: max 1 µM
Outline: as §1

Doxorubicin = compound: COc1cccc2c1C(=O)c1c(O)c3c(c(O)c1C2=O)C[C@@](O)(C(=O)CO)C[C@@H]3O[C@H]1C[C@H](N)[C@H](O)[C@H](C)O1 [Doxorubicin]; conditions: max 1 µM
Outline: as §1

AZD5153 = compound: COc1nnc2ccc(N3CCC(c4ccc(OCCN5CCN(C)C(=O)[C@H]5C)cc4)CC3)nn12 [AZD5153]; conditions: max 1 µM
Outline: as §1

Lapatinib = compound: CS(=O)(=O)CCNCc1ccc(-c2ccc3ncnc(Nc4ccc(OCc5cccc(F)c5)c(Cl)c4)c3c2)o1 [Lapatinib]; conditions: max 10 µM
Outline: as §1

AZD8186 = compound: C[C@@H](Nc1cc(F)cc(F)c1)c1cc(C(=O)N(C)C)cc2c(=O)cc(N3CCOCC3)oc12 [AZD8186]; conditions: max 10 µM
Outline: as §1

Crizotinib = compound: C[C@@H](Oc1cc(-c2cnn(C3CCNCC3)c2)cnc1N)c1c(Cl)ccc(F)c1Cl [Crizotinib]; conditions: max 10 µM
Outline: as §1

Savolitinib = compound: C[C@@H](c1ccc2nccn2c1)n1nnc2ncc(-c3cnn(C)c3)nc21 [Savolitinib]; conditions: max 1 µM
Outline: as §1

AZD6738 = compound: C[C@@H]1COCCN1C2=NC(=NC(=C2)C3(CC3)[S@](=N)(=O)C)C4=C5C=CNC5=NC=C4 [AZD6738]; conditions: max 10 µM
Outline: as §1

AZD5991 = compound: Cc1c2c(nn1C)CSCc1cc(n(C)n1)CSc1cc(c3ccccc3c1)OCCCc1c(C(=O)O)n(C)c3c-2c(Cl)ccc13 [AZD5991]; conditions: max 1 µM
Outline: as §1

AZD7648 = compound: Cc1cc2ncnn2cc1Nc1ncc2c(n1)n(C1CCOCC1)c(=O)n2C [AZD7648]; conditions: max 10 µM
Outline: as §1

Taselisib = compound: Cc1nc(-c2cn3c(n2)-c2ccc(-c4cnn(C(C)(C)C(N)=O)c4)cc2OCC3)n(C(C)C)n1 [Taselisib]; conditions: max 10 µM
Outline: as §1

Selumetinib = compound: Cn1cnc2c(F)c(Nc3ccc(Br)cc3Cl)c(C(=O)NOCCO)cc21 [Selumetinib]; conditions: max 10 µM
Outline: as §1

SRA737 = compound: N#Cc1cnc(Nc2cc(NC[C@H]3CNCCO3)c(C(F)(F)F)cn2)cn1 [SRA737]; conditions: max 10 µM
Outline: as §1

MK-2206 = compound: NC1(c2ccc(-c3nc4ccn5c(=O)[nH]nc5c4cc3-c3ccccc3)cc2)CCC1 [MK-2206]; conditions: max 10 µM
Outline: as §1

Gemcitabine = compound: Nc1ccn([C@@H]2O[C@H](CO)[C@@H](O)C2(F)F)c(=O)n1 [Gemcitabine]; conditions: max 0.3 µM
Outline: as §1

[1] = compound: O=C(Nc1ccc2[nH]nc(-c3ccncc3)c2c1)[C@@H]1CCN(CC(=O)N2CCN(c3ccc(-c4ncccn4)cc3)CC2)C1; conditions: max 5 µM
Outline: as §1

Olaparib = compound: O=C(c1cc(Cc2n[nH]c(=O)c3ccccc23)ccc1F)N1CCN(C(=O)C2CC2)CC1 [Olaparib]; conditions: max 10 µM
Outline: as §1

5-Fluorouracil = compound: O=c1[nH]cc(F)c(=O)[nH]1 [5-Fluorouracil]; conditions: max 20 µM
Outline: as §1

Row | Cell Line | IC50, cell viability 72 h (Carboplatin) [µM] | IC50, cell viability 72 h (AZD5363) [µM] | IC50, cell viability 72 h (AZD1775) [µM] | IC50, cell viability 72 h (Trametinib) [µM] | IC50, cell viability 72 h (Paclitaxel) [µM] | IC50, cell viability 72 h (Palbociclib) [µM] | IC50, cell viability 72 h (AZD1390) [µM] | IC50, cell viability 72 h (Venetoclax) [µM] | IC50, cell viability 72 h (Dasatinib) [µM] | IC50, cell viability 72 h (SG3199) [µM] | IC50, cell viability 72 h (AZD2811) [µM] | IC50, cell viability 72 h (SN-38) [µM] | IC50, cell viability 72 h (AZD0156) [µM] | IC50, cell viability 72 h (AZD4320) [µM] | IC50, cell viability 72 h (Alisertib) [µM] | IC50, cell viability 72 h (Etoposide) [µM] | IC50, cell viability 72 h (Gefitinib) [µM] | IC50, cell viability 72 h (Prexasertib) [µM] | IC50, cell viability 72 h (Doxorubicin) [µM] | IC50, cell viability 72 h (AZD5153) [µM] | IC50, cell viability 72 h (Lapatinib) [µM] | IC50, cell viability 72 h (AZD8186) [µM] | IC50, cell viability 72 h (Crizotinib) [µM] | IC50, cell viability 72 h (Savolitinib) [µM] | IC50, cell viability 72 h (AZD6738) [µM] | IC50, cell viability 72 h (AZD5991) [µM] | IC50, cell viability 72 h (AZD7648) [µM] | IC50, cell viability 72 h (Taselisib) [µM] | IC50, cell viability 72 h (Selumetinib) [µM] | IC50, cell viability 72 h (SRA737) [µM] | IC50, cell viability 72 h (MK-2206) [µM] | IC50, cell viability 72 h (Gemcitabine) [µM] | IC50, cell viability 72 h [1] [µM] | IC50, cell viability 72 h (Olaparib) [µM] | IC50, cell viability 72 h (5-Fluorouracil) [µM]
1 | LS-1034 (Colorectal Carcinoma) | > 10 | > 10 | 0.918 | 0.052 | 0.59 | > 10 | > 0.3 | > 1 | > 2 | > 0.001 | > 1 | > 0.3 | > 3 | > 1 | > 10 | > 10 | > 10 | 0.238 | > 1 | 0.85 | > 10 | > 10 | > 10 | > 1 | 6.05 | > 1 | > 10 | > 10 | 2.42 | > 10 | > 10 | 0.12 | > 5 | > 10 | > 20
2 | RCC-JW (Kidney Carcinoma) | > 10 | > 10 | 1.6 | > 1 | 0.109 | > 10 | > 0.3 | > 1 | 0.0851 | > 0.001 | > 1 | 0.157 | > 3 | 0.895 | > 10 | > 10 | > 10 | > 1 | > 1 | > 1 | 7.53 | 5.13 | > 10 | > 1 | > 10 | > 1 | > 10 | > 10 | > 10 | > 10 | > 10 | 0.0617 | > 5 | > 10 | > 20
3 | SKG-IIIa (Cervical Carcinoma) | > 10 | > 10 | > 3 | > 1 | 0.854 | > 10 | > 0.3 | > 1 | > 2 | > 0.001 | > 1 | > 0.3 | > 3 | > 1 | > 10 | > 10 | > 10 | > 1 | > 1 | > 1 | > 10 | > 10 | > 10 | > 1 | > 10 | > 1 | > 10 | > 10 | > 10 | > 10 | > 10 | > 0.3 | > 5 | > 10 | > 20
4 | NCI-H226 (Mesothelioma) | > 10 | > 10 | > 3 | > 1 | > 3 | > 10 | > 0.3 | > 1 | > 2 | > 0.001 | > 1 | > 0.3 | > 3 | > 1 | > 10 | > 10 | > 10 | > 1 | > 1 | > 1 | > 10 | > 10 | > 10 | > 1 | > 10 | > 1 | > 10 | > 10 | > 10 | > 10 | > 10 | > 0.3 | > 5 | > 10 | > 20
5 | SNU-423 (Hepatocellular Carcinoma) | > 10 | > 10 | 2.15 | > 1 | 0.124 | > 10 | > 0.3 | > 1 | > 2 | > 0.001 | > 1 | > 0.3 | > 3 | > 1 | > 10 | > 10 | > 10 | 0.166 | > 1 | > 1 | > 10 | > 10 | > 10 | > 1 | > 10 | > 1 | > 10 | > 10 | > 10 | > 10 | > 10 | > 0.3 | > 5 | > 10 | > 20
